Source: US20080207621A1, “SOLUBLE EPOXIDE HYDROLASE INHIBITORS” (Arete Therapeutics, Inc., priority 2006, published 2008)

Columns and labels:
[1] = test system: soluble epoxide hydrolase (sEH); experiment: Fluorescent assay for mouse and human soluble epoxide hydrolase (CMNPC substrate); assay type: biochemical; details: substrate CMNPC 5 μM, 30° C.
Description: Fluorescent Assay for Mouse and Human Soluble Epoxide Hydrolase Recombinant mouse sEH (MsEH) and human sEH (HsEH) were produced in a baculovirus expression system as previously reported. Grant et al., J. Biol. Chem., 268:17628-17633 (1993); Beetham et al., Arch. Biochem. Biophys., 305:197-201 (1993). The expressed proteins were purified from cell lysate by affinity chromatography. Wixtrom et al., Anal. Biochem., 169:71-80 (1988). Protein concentration was quantified using the Pierce BCA assay using bovine serum albumin as the calibrating standard. The preparations were at least 97% pure as judged by SDS-PAGE and scanning densitometry. They contained no detectable esterase or glutathione transferase activity which can interfere with the assay. The assay was also evaluated with similar results in crude cell lysates or homogenate of tissues. The IC50s for each inhibitor were determined according to the following procedure: […] Jones P. D. et. al.; Analytical Biochemistry 2005; 343: pp. 66-75) Bis/Tris HCl 25 mM pH 7.0 containing 0.1 mg/mL of BSA (buffer […] at 0.25 mM in DMSO. Mother solution of enzyme in buffer A (Mouse sEH at 6 μg/mL and Human sEH at 5 μg/mL). Inhibitor dissolved in DMSO at the appropriate concentration. In a black 96 well plate, fill all the wells with 150 μL of buffer A. Add 2 μL of DMSO in well A2 and A3, and then add 2 μL of inhibitor solution in A1 and A4 through A12. Add 150 μL of buffer A in row A, then mix several time and transfer 150 μL to row B. Repeat this operation up to row H. The 150 μL removed from row H is discarded. Add 20 μL of buffer A in column 1 and 2, then add 20 μL of enzyme solution to column 3 to 12. Incubate the plate for 5 minutes in the plate reader at 30° C. During incubation prepare the working solution of substrate by mixing 3.68 mL of buffer A (4×0.920 mL) with 266 μL (2×133 μL) of substrate solution). At t=0, add 30 μL of working substrate solution with multi-channel pipette labeled “Briggs 303” and start the reading ([S]final: 5 μM). Read with ex: 330 nm (20 nm) and em: 465 nm (20 nm) every 30 second for 10 minutes. The velocities are used to analyze and calculate the IC50s.

SMILES	% Inhibition ([1]; Conc. 50 nM)	other results
NS(=O)(=O)c1ccc(NC(=O)NC23CC4CC(CC(C4)C2)C3)cc1 [Compound 1, 4-(3-Adamantan-1-yl-ureido)-benzenesulfonamide]		% Inhibition ([1]; Conc. 500 nM): 92%
NS(=O)(=O)c1cccc(NC(=O)NC23CC4CC(CC(C4)C2)C3)c1 [Compound 2, 3-(3-Adamantan-1-yl-ureido)-benzenesulfonamide]		% Inhibition ([1]; Conc. 500 nM): 94%
O=C(Nc1ccc(C(F)(F)F)cc1)Nc1ccc(S(=O)(=O)NCCN2CCOCC2)cc1 [Compound 7, N-(2-Morpholin-4-yl-ethyl)-4-[3-(4-trifluoromethyl-phenyl)-ureido]-benzenesulfonamide]	91%	
CNS(=O)(=O)c1cccc(NC(=O)Nc2ccc(C(F)(F)F)cc2)c1 [Compound 12, N-methyl-3-[3-(4-trifluoromethylphenyl)ureido]benzenesulfonamide]	85%	melting point: 238 to 240 °C
CC(C)N1CCN(S(=O)(=O)c2ccc(NC(=O)Nc3ccc(C(F)(F)F)cc3)cc2)CC1 [Compound 15, 1-[4-(4-Isopropyl-piperazine-1-sulfonyl)-phenyl]-3-(4-trifluoromethyl-phenyl)-urea]	90%	
CC(C)N1CCN(S(=O)(=O)c2cccc(NC(=O)Nc3ccc(C(F)(F)F)cc3)c2)CC1 [Compound 16, 1-[3-(4-Isopropyl-piperazine-1-sulfonyl)-phenyl]-3-(4-trifluoromethyl-phenyl)-urea]	92%	
CC(=O)NS(=O)(=O)c1cccc(NC(=O)Nc2ccc(C(F)(F)F)cc2)c1 [Compound 20, N-(3-(3-(4-(trifluoromethyl)phenyl)ureido)phenylsulfonyl)aceta-mide]		melting point: 115 to 121 °C; % Inhibition ([1]; Conc. 5000 nM): 85%
O=C(O)CCCNS(=O)(=O)c1ccc(NC(=O)Nc2ccc(C(F)(F)F)cc2)cc1 [Compound 23, 4-{4-[3-(4-Trifluoromethyl-phenyl)-ureido]-benzenesulfonylamino}-butyric acid]	80%	melting point: 172 to 175 °C
O=C(Nc1ccc(C(F)(F)F)cc1)Nc1cccc(S(=O)(=O)Nc2ccc(Cl)cc2)c1 [Compound 26, N-(4-Chloro-phenyl)-3-[3-(4-trifluoromethyl-phenyl)-ureido]-benzenesulfonamide]	99%	melting point: 196 to 198 °C
O=C(Nc1ccc(C(F)(F)F)cc1)Nc1cccc(S(=O)(=O)N2CCOCC2)c1 [Compound 28, 1-[3-(Morpholine-4-sulfonyl)-phenyl]-3-(4-trifluoromethyl-phenyl)-urea]	93%	

Now from value to molecule, other results behind:

% Inhibition ([1]; Conc. 50 nM)	SMILES	other results
75%	NS(=O)(=O)c1cccc(NC(=O)Nc2ccc(C(F)(F)F)cc2)c1 [Compound 4, 3-[3-(4-Trifluoromethyl-phenyl)-ureido]-benzenesulfonamide]	
94%	O=C(Nc1ccc(C(F)(F)F)cc1)Nc1cccc(S(=O)(=O)NCCN2CCOCC2)c1 [Compound 8, N-(2-Morpholin-4-yl-ethyl)-3-[3-(4-trifluoromethyl-phenyl)-ureido]-benzenesulfonamide]	
99%	O=C(Nc1ccc(C(F)(F)F)cc1)Nc1ccc(S(=O)(=O)Nc2ccc(Cl)cc2)cc1 [Compound 25, N-(4-Chloro-phenyl)-4-[3-(4-trifluoromethyl-phenyl)-ureido]-benzenesulfonamide]	
95%	O=C(Nc1ccc(C(F)(F)F)cc1)Nc1ccc(S(=O)(=O)N2CCOCC2)cc1 [Compound 27, 1-[4-(Morpholine-4-sulfonyl)-phenyl]-3-(4-trifluoromethyl-phenyl)-urea]	
